According to patent publication US8921563B2, “1-[(4-hydroxypiperidin-4-yl)methyl]pyridin-2(1H)-one derivatives, preparation methods and uses thereof” (Institue of Pharmacology and Toxicology Academy of Military …, priority 2010, dated 2014):

Assays:
5-HT1A receptor [1] = biological target: T1, 5-HT1A receptor (Rattus norvegicus, UniProt P19327); assay: Screening: competitive binding test to 5-HT1A receptor using [3H]-8-OH-DPAT, rat hippocampi membrane protein; conditions: [3H]-8-OH-DPAT 1.28 nM, read-out: Inhibition percent (I %), competitive binding to 5-HT1A receptor
T1 construct: the content of 5-HT1A receptor extracted from rat hippocampi was 5.5 mg/ml; from tissue; host or cells: Wistar rat hippocampus, membrane preparation
T1 sequence (P19327 1-422): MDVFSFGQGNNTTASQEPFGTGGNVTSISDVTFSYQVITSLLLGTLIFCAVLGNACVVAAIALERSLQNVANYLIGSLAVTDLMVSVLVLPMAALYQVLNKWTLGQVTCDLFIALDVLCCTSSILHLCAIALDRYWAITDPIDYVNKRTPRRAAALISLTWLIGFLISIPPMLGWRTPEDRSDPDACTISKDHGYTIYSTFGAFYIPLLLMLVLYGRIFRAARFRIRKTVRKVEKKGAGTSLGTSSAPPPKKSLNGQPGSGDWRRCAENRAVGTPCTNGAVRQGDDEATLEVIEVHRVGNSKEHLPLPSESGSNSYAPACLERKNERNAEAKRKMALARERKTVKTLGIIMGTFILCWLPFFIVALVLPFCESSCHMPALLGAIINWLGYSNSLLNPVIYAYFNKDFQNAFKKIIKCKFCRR
Protocol: 1.4.1 Screening of YL Series Compounds
(1) Preparation of Membrane Proteins in Rat Hippocampi
Wister rats, 220-260 g, female and male, were sacrificed by decapitation and hippocampis were rapidly separated, weighed and to which homogenized in 10 times volume of Tris-HCl buffer solution (50 mM Tris-HCl, 5 mM MgCl2,1 mM EDTA, 0.5% (WN) BSA, 1 mM PMSF, 3 μg/ml proteinase inhibitor, 0.1% NaN3, 0.32M sucrose, pH 7.4) at 15,000 rpm for 30 s, total 5 times. The homogenate was centrifuged under 1000×g for 10 minutes and the supernatant was then centrifuged under 39000×g for 10 minutes. The precipitate was collected, and resuspended with 10 times volume of Tris-HCl buffer solution (pH 7.4) relative to the original weight, then centrifuged under 39000×g for 10 minutes. The precipitate was washed with the same buffer solution, centrifuged under 39000×g for 10 minutes and the precipitate was suspended with the above buffer solution. After sub-packaged (the whole operation procedures were performed under ice bath), the product was stored at −80° C. The protein concentration was measured by Lowrry method.
1) In the 5-HT1A receptor binding test, tubes are firstly placed under reaction condition of 25° C.
2) To all of the tubes, the receptor proteins extracted from rat hippocampi in an amount of 100 μg were added in sequence.
4) To the test tubes, 30 μl of the compound in corresponding concentrations (used for screening: 10^−5, 10^−7, 10^−9M) was added in sequence.
6) Tris-HCl buffer solution (50 mM Tris-HCl, 1 mM EDTA, 5 mM MgCl2, 0.1 mM PMSF, 0.1% NaN3, pH 7.4) was supplied to all of the tubes to reach a volume of 300 μl.
7) The reaction was performed at 25° C. for 1 h.
8) Then samples were applied to 49-type glass fibre filter, vacuum suction filtered, then washed three times with 2 ml ice-cold Tris-HCl buffer solution (50 mM Tris-HCl buffer solution, 1 mM EDTA, 5 mM MgCl2, 1 mM PMSF, 0.1% NaN3, 3 μg/ml proteinase inhibitor, pH 7.4). […] The radio-activity was measured by a scintillation counter.

mice [2] = assay: Tail suspension test in mice; type: in vivo; conditions: acute, 1 h before test
Description: 2.1.2 Tail Suspension Test in Mice
Tail suspension test in mice is an acute behavioral despair model established by Stem, et al. (1985).
1) Experimental device: an experimental frame with spacing boards which dividing the experimental frame into 2 experimental chambers (20×25×30 cm). A clamp is mounted on a through cross rod in the chamber for clamping mice tail so as to suspend the mice.
2) Experimental method: Male Kunming mice weighing 20-25 g. The mice were intragastrically administered with YL-0911 or vehicle (distilled water). After 1 h, wrap adhesive tape around the mouse's tail in position three quarters of the distance from the base of the tail and then suspend the animals by passing the suspension hook through the adhesive tape 5 cm above the table. The duration of immobility in the last 4 min of total 6 min test was recorded.

mice [3] = assay: Forced swim test in mice; type: in vivo; conditions: acute, 1 h before test
Protocol: 2.1.1 Forced Swim Test in Mice
Forced swim test in mice is an acute behavioral despair model established by Porsolt, et al.
(1) Experimental device: a glass cylinder (diameter 13 cm, height 24 cm, containing 10 cm of water maintained at 25).
(2) Experimental method: Male Kunming mice weighing 20-25 g. The mice were gently put in the water 1 h after intragastrically drug administration, and then the duration of immobility in the last 4 min of total 6 min test was recorded.

SERT = SERT (Homo sapiens, UniProt P31645); assay: Competitive binding test of YL-0911 and positive drugs to SERT (hSERT from transfected cell lines)
Chain of SERT (P31645 whole entry): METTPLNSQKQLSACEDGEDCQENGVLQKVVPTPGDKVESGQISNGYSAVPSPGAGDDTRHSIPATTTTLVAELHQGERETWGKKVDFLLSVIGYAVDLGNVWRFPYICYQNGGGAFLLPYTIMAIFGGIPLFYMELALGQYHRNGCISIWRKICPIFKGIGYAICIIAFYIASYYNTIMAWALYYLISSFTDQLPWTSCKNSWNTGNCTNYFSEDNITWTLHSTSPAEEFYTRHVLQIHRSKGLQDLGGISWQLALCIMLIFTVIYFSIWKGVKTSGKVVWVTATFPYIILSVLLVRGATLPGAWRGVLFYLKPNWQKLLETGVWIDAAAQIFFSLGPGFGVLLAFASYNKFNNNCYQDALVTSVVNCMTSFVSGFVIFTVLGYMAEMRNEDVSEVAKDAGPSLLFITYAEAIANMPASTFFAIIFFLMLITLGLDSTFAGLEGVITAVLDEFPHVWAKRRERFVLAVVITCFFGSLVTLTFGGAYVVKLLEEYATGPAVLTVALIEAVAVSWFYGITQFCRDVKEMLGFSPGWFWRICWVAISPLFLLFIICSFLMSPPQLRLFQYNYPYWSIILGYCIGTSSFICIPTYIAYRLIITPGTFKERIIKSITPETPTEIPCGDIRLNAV

NET = NET (Homo sapiens, UniProt P23975); assay: Preliminary test of NET binding effect of YL-0911; conditions: 10^-5 and 10^-7 mol/L; NET protein from HEK-293 cell line
Chain of NET (P23975 whole entry): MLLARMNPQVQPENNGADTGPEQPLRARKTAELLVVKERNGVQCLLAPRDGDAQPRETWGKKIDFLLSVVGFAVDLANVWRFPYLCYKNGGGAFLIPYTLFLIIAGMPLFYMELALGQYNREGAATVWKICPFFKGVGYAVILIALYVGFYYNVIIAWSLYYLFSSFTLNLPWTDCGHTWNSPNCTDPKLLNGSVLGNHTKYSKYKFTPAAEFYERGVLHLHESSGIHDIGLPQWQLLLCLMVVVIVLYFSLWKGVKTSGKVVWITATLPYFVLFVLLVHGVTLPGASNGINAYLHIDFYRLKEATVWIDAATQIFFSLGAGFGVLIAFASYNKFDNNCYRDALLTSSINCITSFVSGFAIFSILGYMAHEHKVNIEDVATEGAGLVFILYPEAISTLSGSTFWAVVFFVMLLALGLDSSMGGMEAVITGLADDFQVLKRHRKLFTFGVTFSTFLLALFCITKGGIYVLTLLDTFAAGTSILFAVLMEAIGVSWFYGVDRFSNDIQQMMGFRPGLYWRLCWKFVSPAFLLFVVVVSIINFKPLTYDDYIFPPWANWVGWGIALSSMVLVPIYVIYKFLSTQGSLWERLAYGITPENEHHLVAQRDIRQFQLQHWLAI
Description: (4) Preliminary Test of NET Binding Effect of YL-0911 and Positive Control Drugs
Two different drug concentrations, 10^−5 and 10^−7 mol/L, were used to determine the binding effect of YL-0911 on NET protein extracted from the HEK-293 cell lines of stably expression NET.

5-HT1A receptor [4] = biological target: T1, 5-HT1A receptor; assay: Competitive binding test of YL-0911 and positive drugs to 5-HT1A receptor (extracted from hippocampi); conditions: [3H]-8-OH-DPAT 0.25 nM
Protocol: 1) Test tubes were placed in 37° C. reactor.
3) To the test tubes, 20 μl of the drug to be tested (selecting a concentration ranging from 10^−3-10^−10M) was added.
IC50 and Kd were used to calculate Ki value.

inhibition at 10 µM (5-HT1A receptor [1]; compound 10^-5 mol/L): 100%
inhibition at 0.1 µM (5-HT1A receptor [1]; compound 10^-7 mol/L): 85%
melting point: 216 to 218 °C
Ki (SERT): 5.38 ± 0.27 nM
Ki (5-HT1A receptor [4]): 0.44 ± 0.32 nM
SMILES: O=c1ccccn1CC1(O)CCN(Cc2ccccc2)CC1 [Compound 1, 1-[(1-benzyl-4-hydroxypiperidin-4-yl)-methyl]-pyridin-2(1H)-one]
Immobility time (s), tail suspension test (mice [2]; 0.625 mg/kg p.o.): 105.4 ± 24.6 s
Immobility time (s), tail suspension test (mice [2]; 1.25 mg/kg p.o.): 93.8 ± 38.7 s
Immobility time (s), tail suspension test (mice [2]; 5 mg/kg p.o.): 98.8 ± 45.3 s
Immobility time (s), forced swim test (mice [3]; 0.625 mg/kg p.o.): 126.1 ± 60.9 s
Immobility time (s), forced swim test (mice [3]; 1.25 mg/kg p.o.): 72.0 ± 46.5 s
Immobility time (s), forced swim test (mice [3]; 5 mg/kg p.o.): 149.6 ± 39.1 s
affinity to NET (selectivity) (NET): obviously lower than the affinity to SERT and 5-HT1A
